# Data taken from patent US7825139B2, “Compounds and methods for selective inhibition of dipeptidyl peptidase-IV” (Forest Laboratories Holdings Limited (BM), priority 2005, dated 2010).
# Assays:
# DPP-VII = target: T1, DPP-VII (Homo sapiens, UniProt Q9UHL4); test: DPP-VII IC50 assay (Lys-Pro AMC), selectivity versus DPP-IV; type: biochemical; conditions: IC50 of DPP-VII divided by IC50 for DPP-IV
# T1 construct: The full length cDNAs for human DPP-VII, DPP-VIII, DPP-IX, and FAP were obtained from Open Biosystems; FLAG (N); made in house
# Excerpt: (§1) The term “selectivity ratio” refers to the IC50 value generated in a biochemical assay measuring inhibition of DPP-IV compared to the IC50 value generated in a biochemical assay measuring inhibition of another DPP family member (e.g. DPP-VII, DPP-VIII, DPP-IX or FAP) whereby the ratio is obtained by dividing the IC50 value of DPP-VII, DPP-VIII, DPP-IX or FAP by the IC50 value for DPP-IV.
# (§2) Materials. S9 insect cells and Sf-900 II SFM media were from Invitrogen. Anti-FLAG M2 immunoaffinity gel was from Sigma. Gly-Pro-AMC, Lys-Pro AMC, and Ala-Pro AMC were from Enzyme Systems. IC50 calculations were performed by non-linear regression analysis using Prism software (GraphPad). Preparation of DPP-VII, DPP-VIII, DPP-IX, and FAP baculovirus constructs. The full length cDNAs for human DPP-VII, DPP-VIII, DPP-IX, and FAP were obtained from Open Biosystems. […] Baculovirus was prepared using the Bac-to-Bac Baculovirus Expression System (Invitrogen). The cDNAs in the final baculovirus constructs were sequence verified. Baculovirus expression. […] Infection with DPP-VII, DPP-VIII, DPP-IX, and FAP baculoviral constructs were all performed at an MOI of 4. The infected cells were grown for 48 hours and the cell pellets harvested and frozen until purification. DPP-VII was purified using anti-FLAG immunoaffinity gel according to the manufacturer's instructions. DPP-VIII, DPP-IX, and FAP were purified using a B-PER 6xHis Fusion Protein Column Purification Kit from Pierce. IC50 assay. Recombinant DPPs were diluted in reaction buffer to give fluorescence values of 5000-20000 counts in the “enzyme only wells” 20 min after addition of substrate at 27° C. Reaction buffers were 25 mM (2-(4-Morpholino)-Ethane Sulfonic Acid), pH 5.5 for DPP-VII, 25 mM Tris, pH 8, 1% Triton X-100, 100 mM NaCl for DPP-VIII, and 25 mM Tris pH 8 for DPP-1× and FAP. Test wells in a 96-well microtiter plate contained 88 μL of diluted DPP and 2.5 ul of titrated compound in 50 mM glycine, pH 2.6. “Enzyme only” wells contained 88 uL of diluted DPP and 2.5 ul of glycine buffer. “No enzyme” wells contained 88 uL of reaction buffer without DPP and 2.5 ul of glycine buffer. All assays were done in triplicate. The plate was incubated at 27° C. for 10 min and then cooled on ice for 10 min. Ten microliters of substrate diluted in reaction buffer (40 uM final concentration) without Triton or NaCl were then added to all wells followed by incubation at 27C for 20 min. Substrates were Lys-Pro AMC for DPP-VII, and Ala-Pro AMC for DPP-VIII, DPP-IX, and FAP. Fluorescence in each well was measured at settings of 380/460 nm.
# DPP-VIII = target: T2, DPP-VIII (Homo sapiens, UniProt Q6V1X1); test: DPP-VIII IC50 assay (Ala-Pro AMC), selectivity versus DPP-IV; type: biochemical; conditions: IC50 of DPP-VIII divided by IC50 for DPP-IV
# T2 construct: The full length cDNAs for human DPP-VII, DPP-VIII, DPP-IX, and FAP were obtained from Open Biosystems; 6xHis (C); made in house
# Excerpt: as §1, §2
# FAP = target: T3, FAP (Homo sapiens, UniProt Q12884); test: FAP IC50 assay (Ala-Pro AMC), selectivity versus DPP-IV; type: biochemical; conditions: IC50 of FAP divided by IC50 for DPP-IV
# T3 construct: The full length cDNAs for human DPP-VII, DPP-VIII, DPP-IX, and FAP were obtained from Open Biosystems; 6xHis (N); made in house
# T3 sequence (Q12884 1-760): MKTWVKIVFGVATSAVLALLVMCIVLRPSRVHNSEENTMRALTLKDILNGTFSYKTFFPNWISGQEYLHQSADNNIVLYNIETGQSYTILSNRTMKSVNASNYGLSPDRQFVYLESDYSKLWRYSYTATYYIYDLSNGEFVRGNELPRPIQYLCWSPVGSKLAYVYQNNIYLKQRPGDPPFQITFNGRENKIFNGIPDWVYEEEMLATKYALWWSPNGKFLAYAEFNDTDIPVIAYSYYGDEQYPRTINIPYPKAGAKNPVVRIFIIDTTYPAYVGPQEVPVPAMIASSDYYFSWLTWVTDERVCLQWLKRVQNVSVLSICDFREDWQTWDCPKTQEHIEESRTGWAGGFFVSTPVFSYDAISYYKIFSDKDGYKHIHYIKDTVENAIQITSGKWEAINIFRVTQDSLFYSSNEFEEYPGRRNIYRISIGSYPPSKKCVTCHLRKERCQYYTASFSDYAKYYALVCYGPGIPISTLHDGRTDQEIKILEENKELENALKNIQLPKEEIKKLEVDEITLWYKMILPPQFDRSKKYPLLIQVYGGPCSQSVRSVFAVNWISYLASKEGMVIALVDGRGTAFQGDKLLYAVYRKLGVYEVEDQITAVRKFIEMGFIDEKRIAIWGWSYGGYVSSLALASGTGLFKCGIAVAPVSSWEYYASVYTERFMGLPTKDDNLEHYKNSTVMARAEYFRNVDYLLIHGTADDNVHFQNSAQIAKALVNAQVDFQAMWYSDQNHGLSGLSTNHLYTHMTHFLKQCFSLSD
# Excerpt: as §1, §2
# Zucker Obese Fatty rats = test: Toxicity in rats, oral dosing; type: in vivo, rat; conditions: 1 mg/kg, 4-24 hrs post-dose, all Zucker Obese Fatty rats tested
# Excerpt: Toxicity in Rats: The Zucker Diabetic Fatty (ZDF) rat model can be used to investigate the effects of the compounds of the invention on both the treatment and prevention of diabetes as rats of this sub-strain are initially pre-diabetic although they develop severe type 2 diabetes characterized by increased HbAl c levels over a period of 6 weeks. The same strain can be used to predict the clinical efficacy of other anti-diabetic drug types. For example, the model predicts the potency and limited clinical efficacy of thiazolidinedione insulin sensitizer compounds. The experimental protocol requires p.o. (oral gavage) administration of either vehicle or test article at indicated doses either QD or BID using a gastric feeding needle with a ball tip, without anesthesia, using hand restraint to adult rats which have been fasted overnight. Animals are monitored for clinical signs at 1, 2, 4 and 8 hour time intervals following the treatment regimen. Whole blood samples (to a maximum level of 10% of the total blood volume every 2 weeks) were collected from the animals from the retro-orbital sinus in accordance with the guidelines of the IACUC committee.
# The expected therapeutic dose level could not be reached for the comparative compounds before acute toxicity was observed.
# T2 sequence (Q6V1X1 whole entry): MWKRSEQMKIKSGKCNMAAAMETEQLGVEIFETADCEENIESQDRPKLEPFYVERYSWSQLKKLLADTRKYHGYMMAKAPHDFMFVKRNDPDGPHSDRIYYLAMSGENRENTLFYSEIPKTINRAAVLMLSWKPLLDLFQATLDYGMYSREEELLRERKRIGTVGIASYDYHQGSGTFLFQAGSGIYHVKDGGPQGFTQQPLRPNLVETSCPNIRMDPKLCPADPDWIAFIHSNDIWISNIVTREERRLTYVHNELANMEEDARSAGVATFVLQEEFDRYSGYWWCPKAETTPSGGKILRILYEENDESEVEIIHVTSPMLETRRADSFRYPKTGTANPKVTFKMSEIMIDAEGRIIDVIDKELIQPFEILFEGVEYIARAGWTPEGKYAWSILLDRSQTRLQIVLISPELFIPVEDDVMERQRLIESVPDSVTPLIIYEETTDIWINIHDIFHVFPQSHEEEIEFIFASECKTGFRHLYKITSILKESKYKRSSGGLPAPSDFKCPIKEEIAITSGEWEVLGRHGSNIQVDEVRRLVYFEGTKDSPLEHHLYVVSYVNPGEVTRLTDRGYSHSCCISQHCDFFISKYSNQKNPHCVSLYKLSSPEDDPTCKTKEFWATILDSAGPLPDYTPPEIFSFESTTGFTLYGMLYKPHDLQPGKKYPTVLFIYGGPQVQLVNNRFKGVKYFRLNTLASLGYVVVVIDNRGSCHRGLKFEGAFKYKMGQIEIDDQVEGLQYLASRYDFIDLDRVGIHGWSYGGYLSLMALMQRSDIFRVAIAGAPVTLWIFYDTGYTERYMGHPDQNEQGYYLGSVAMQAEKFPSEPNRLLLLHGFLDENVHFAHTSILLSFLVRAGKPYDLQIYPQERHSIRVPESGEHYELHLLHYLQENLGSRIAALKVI
SMILES,Selectivity Ratios DPP-VII (DPP-VII),Selectivity Ratios DPP-VIII (DPP-VIII),Selectivity Ratios FAP (FAP),acute toxicity in rats (Zucker Obese Fatty rats)
"N[C@@H]1CCN(S(=O)(=O)c2ccc(F)cc2)C[C@H]1C(=O)N1CCC[C@H]1B(O)O [Compound 8, (2R)-1-[(3R,4R)-4-amino-1-(4-fluoro-benzenesulfonyl)-piperidine-3-carbonyl]-boroPro-OH]",E (E > 100),D (50 < D ≦ 100),D (50 < D ≦ 100),
"N[C@@H]1CCN(S(=O)(=O)c2ccccc2F)C[C@H]1C(=O)N1CCC[C@H]1B(O)O [Compound 10, (2R)-1-[(3R,4R)-4-amino-1-(2-fluoro-benzenesulfonyl)-piperidine-3-carbonyl]-boroPro-OH]",E (E > 100),C (10 < C ≦ 50),D (50 < D ≦ 100),
"N[C@@H]1CCN(S(=O)(=O)c2cccc(-c3ccccc3)c2)C[C@H]1C(=O)N1CCC[C@H]1B(O)O [Compound 17, (2R)-1-[(3R,4R)-4-amino-1-(biphenyl-3-sulfonyl)-piperidine-3-carbonyl]-boroPro-OH]",C (10 < C ≦ 50),E (E > 100),C (10 < C ≦ 50),
"N[C@@H]1CCN(S(=O)(=O)c2ccccc2)C[C@H]1C(=O)N1CCC[C@H]1B(O)O [Compound 6, (2R)-1-[(3R,4R)-4-amino-1-Benzenesulfonyl-piperidine-3-carbonyl]-boroPro-OH]",E (E > 100),D (50 < D ≦ 100),E (E > 100),
"O=C(CNC1CCNCC1)N1CCC[C@H]1B(O)O [Compound 20, reference compound]",A (A ≦ 1),B (1 < B ≦ 10),E (E > 100),
"N[C@@H]1CCN(S(=O)(=O)c2ccc(-c3ccccc3)cc2)C[C@H]1C(=O)N1CCC[C@H]1B(O)O [Compound 16, (2R)-1-[(3R,4R)-4-amino-1-(biphenyl-4-sulfonyl)-piperidine-3-carbonyl]-boroPro-OH]",E (E > 100),E (E > 100),C (10 < C ≦ 50),
"CS(=O)(=O)N1CC[C@@H](N)[C@H](C(=O)N2CCC[C@H]2B(O)O)C1 [Compound 7, (2R)-1-[(3R,4R)-4-amino-1-methanesulfonyl-piperidine-3-carbonyl]-boroPro-OH]",E (E > 100),C (10 < C ≦ 50),E (E > 100),
"CS(=O)(=O)c1ccc(S(=O)(=O)N2CC[C@@H](N)[C@H](C(=O)N3CCC[C@H]3B(O)O)C2)cc1 [Compound 13, (2R)-1-[(3R,4R)-4-amino-1-(4-methanesulfonyl-benzenesulfonyl)-piperidine-3-carbonyl]-boroPro-OH]",E (E > 100),D (50 < D ≦ 100),E (E > 100),
"N[C@@H]1CN(S(=O)(=O)c2cccc3ccccc23)CC[C@H]1C(=O)N1CCC[C@H]1B(O)O [Compound 14, (2R)-1-[(3R,4R)-4-amino-1-(naphthalene-1-sulfonyl)-piperidine-3-carbonyl]-boroPro-OH]",C (10 < C ≦ 50),C (10 < C ≦ 50),C (10 < C ≦ 50),
"N[C@@H]1CCN(S(=O)(=O)c2ccc(F)cc2F)C[C@H]1C(=O)N1CCC[C@H]1B(O)O [Compound 11, (2R)-1-[(3R,4R)-4-amino-1-(2,4-difluoro-benzenesulfonyl)-piperidine-3-carbonyl]-boroPro-OH]",E (E > 100),D (50 < D ≦ 100),E (E > 100),
"N[C@@H]1CCN(S(=O)(=O)c2cccc(F)c2)C[C@H]1C(=O)N1CCC[C@H]1B(O)O [Compound 9, (2R)-1-[(3R,4R)-4-amino-1-(3-fluoro-benzenesulfonyl)-piperidine-3-carbonyl]-boroPro-OH]",E (E > 100),D (50 < D ≦ 100),D (50 < D ≦ 100),
CC(C)[C@H](N)C(=O)N1CCC[C@H]1B(O)O [PT100],,,,acute toxicity (death)
"N[C@@H]1CCN(S(=O)(=O)c2cc(F)c(F)cc2F)C[C@H]1C(=O)N1CCC[C@H]1B(O)O [Compound 12, (2R)-1-[(3R,4R)-4-amino-1-(2,4,5-trifluoro-benzenesulfonyl)-piperidine-3-carbonyl]-boroPro-OH]",C (10 < C ≦ 50),C (10 < C ≦ 50),C (10 < C ≦ 50),
"Cl.O=C(CN[C@@H]1CCCNC1)N1CCC[C@H]1B(O)O [Compound 21, reference compound]",A (A ≦ 1),B (1 < B ≦ 10),C (10 < C ≦ 50),
"CC(C)S(=O)(=O)N1CC[C@@H](N)[C@H](C(=O)N2CCC[C@H]2B(O)O)C1 [Compound 18, (2R)-1-[(3R,4R)-4-amino-1-(propane-2-sulfonyl)-piperidine-3-carbonyl]-boroPro-OH]",C (10 < C ≦ 50),C (10 < C ≦ 50),D (50 < D ≦ 100),
